Measured values published in patent US11760775B2, “Steroids and protein-conjugates thereof” (Regeneron Pharmaceuticals, Inc., priority 2016, dated 2023).
Counter-ions that a name gives are not always drawn. Like-named read-outs stand apart in the source and are kept apart here.

Assays:
[1] = test system: GR activation in 293/PRLR/GRE-Luc cells (HEK293/9xUAS-Luc2P/pBind-GR/PRLR-HA high cells); experiment: GR co-activator luciferase reporter cell based assay in 293/PRLR/GRE-Luc cells; parameters: species or system human; conditions: for Emax / EC50: Homo sapiens; for Emax: HEK293, read-out: Activation (fold activation relative to Budesonide) in HEK293/9xUAS-Luc2P/pBind-GR/PRLR-HA high cells; for EC50: HEK293, read-out: HEK293/9xUAS-Luc2P/pBind-GR/PRLR-HA high cells EC50; for HEK293/9xUAS-Luc2P/pBind-GR/PRLR-HA high cells activation relative to Budesonide: fold activation vs Budesonide
Description: Bioassays described herein were used to assess the efficacy of free steroids and anti-PRLR-ncADCs. In one example, the bioassay assessed the activity of steroids, after internalization of a site-specific anti-PRLR-GC steroid ADC into cells, to bind to pBIND-GR and subsequent luciferase reporter activation. […] Then such stable cell line was further transfected with a chimeric receptor consisting of a GR ligand binding domain fused to the yeast Gal4 DNA binding domain (pBind-GR, Promega Cat #E1581), and a Gal4 upstream activator sequence (9×Gal4UAS-Luc2P) that drives luciferase gene expression.
(§1) For this assay, 20,000 cells were seeded in 96-well plates in media containing DMEM supplemented with 10% FBS and pencillin/streptomycin (complete media) and grown overnight at 37° C. in 5% CO2. […] Luciferase activity was determined by addition of OneGlo™ reagent (Promega, Cat #E6130) and relative light units (RLUs) were measured on a Victor luminometer (Perkin Elmer). The EC50 values were determined from a four-parameter logistic equation over a 10 point response curve using GraphPad Prism.
as §1, with “One-Glo™” for “OneGlo™”, “10-point” for “10 point”, “Prism. […] Minimal activation in this assay is defined as less than 10% of the maximal activation measured with the free payload.” for “Prism.”

[2] = target: Glucocorticoid Receptor (GR) (Homo sapiens (Human), UniProt P04150); experiment: LanthaScreen TR-FRET GR Competitive Binding Assay (cell free)
Chain of Glucocorticoid Receptor (GR) (P04150 524-758): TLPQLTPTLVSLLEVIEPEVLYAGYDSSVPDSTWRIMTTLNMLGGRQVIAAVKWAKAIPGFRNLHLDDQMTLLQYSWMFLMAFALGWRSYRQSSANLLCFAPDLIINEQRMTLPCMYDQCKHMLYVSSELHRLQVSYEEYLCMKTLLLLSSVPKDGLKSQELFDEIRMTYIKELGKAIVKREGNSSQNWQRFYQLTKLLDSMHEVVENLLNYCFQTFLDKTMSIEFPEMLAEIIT

Structure (SMILES) | Emax ([1]; 72 hours of incubation) [%] | EC50 ([1]; 72 hours of incubation) [nM] | IC50 [2] [nM] | EC50 [1] [nM] | HEK293/9xUAS-Luc2P/pBind-GR/PRLR-HA high cells activation relative to Budesonide [1]
CCC[C@H]1O[C@@H]2C[C@H]3[C@@H]4CCC5=CC(=O)C=C[C@]5(C)[C@H]4[C@@H](O)C[C@]3(C)[C@]2(C(=O)COc2ccc(N)cc2)O1 [11-5 S, (1S,2S,4R,8S,9S,11S,12S,13R)-8-[2-(4-Aminophenoxy)acetyl]-11-hydroxy-9,13-dimethyl-6-propyl-5,7-dioxapentacyclo[10.8.0.0^2,90.0^4,80.0^13,18]icosa-14,17-dien-16-one] | > 75 | < 10 | 10 to 100 | – | –
[2H]c1c([2H])c(OCC(=O)[C@@]23OC(CCC)O[C@@H]2C[C@H]2[C@@H]4C[C@H](F)C5=CC(=O)C=C[C@]5(C)[C@@]4(F)[C@@H](O)C[C@@]23C)c([2H])c([2H])c1N (stereo partly drawn) [Compound 6-ID, (1S,2S,4R,8S,9S,11S,12R,13S,19S)-8-{2-[4-Amino(2,3,5,6-^2H4)phenoxy]acetyl}-12,19-difluoro-11-hydroxy-9,13-dimethyl-6-propyl-5,7-dioxapentacyclo[10.8.0.0^2,9.0^4,8.0^13,18]icosa-14,17-dien-16-one] | – | – | < 10 | < 10 | Full
CCC[C@@H]1O[C@@H]2C[C@H]3[C@@H]4C[C@H](F)C5=CC(=O)C=C[C@]5(C)[C@@]4(F)[C@@H](O)C[C@]3(C)[C@]2(C(=O)COc2ccc(N)cc2)O1 [Compound R-6-I] | – | – | < 10 | < 10 | Full
CCC[C@H]1O[C@@H]2C[C@H]3[C@@H]4C[C@H](F)C5=CC(=O)C=C[C@]5(C)[C@@]4(F)[C@@H](O)C[C@]3(C)[C@]2(C(=O)COc2ccc(N)cc2)O1 [Compound S-6-I, (1S,2S,4R,6S,8S,9S,11S,12R,13S,19S)-8-[2-(4-Aminophenoxy)acetyl]-12,19-difluoro-11-hydroxy-9,13-dimethyl-6-propyl-5,7-dioxapentacyclo[10.8.0.0^2,90.0^4,80.0^13,18]icosa-14,17-dien-16-one] | – | – | < 10 | < 10 | Full
CCC[C@@H]1O[C@@H]2C[C@H]3[C@@H]4CCC5=CC(=O)C=C[C@]5(C)[C@H]4[C@@H](O)C[C@]3(C)[C@]2(C(=O)COc2ccc(F)cc2)O1 [11-10 R/S, (1S,2S,4R,6R,8S,9S,11S,12S,13R)-8-[2-(4-Fluorophenoxy)acetyl]-11-hydroxy-9,13-dimethyl-6-propyl-5,7-dioxapentacyclo[10.8.0.0^2,90.0^4,80.0^13,18]icosa-14,17-dien-16-one] | < 20 | > 100 | < 10 | – | –
CCCC1O[C@@H]2C[C@H]3[C@@H]4CCC5=CC(=O)C=C[C@]5(C)[C@H]4[C@@H](O)C[C@]3(C)[C@]2(C(=O)CN(C)C)O1 (stereo partly drawn) [11-3 R/S, (1S,2S,4R,8S,9S,11S,12S,13R)-8-[2-(Dimethylamino)acetyl]-11-hydroxy-9,13-dimethyl-6-propyl-5,7-dioxapentacyclo[10.8.0.0^2,90.0^4,80.0^13,18]icosa-14,17-dien-16-one] | 20 to 75 | 10 to 100 | < 10 | – | –
CCC[C@@H]1O[C@@H]2C[C@H]3[C@@H]4CCC5=CC(=O)C=C[C@]5(C)[C@H]4[C@@H](O)C[C@]3(C)[C@]2(C(=O)COc2ccc(N)cc2F)O1 [11-7 R, (1S,2S,4R,8S,9S,11S,12S,13R)-8-[2-(4-Amino-3-fluorophenoxy)acetyl]-11-hydroxyl-9,13-dimethyl-6-propyl-5,7-dioxapentacyclo[10.8.0.0^2,90.0^4,80.0^13,18]icosa-14,17-dien-16-one] | > 75 | 10 to 100 | 10 to 100 | – | –
CCCC1O[C@@H]2C[C@H]3[C@@H]4C[C@H](F)C5=CC(=O)C=C[C@]5(C)[C@@]4(F)[C@@H](O)C[C@]3(C)[C@]2(C(=O)COc2ccc(N)cc2)O1 (stereo partly drawn) [11-12 R/S, (1S,2S,4R,8S,9S,11S,12R,13S,19S)-8-[2-(4-Aminophenoxy)acetyl]-12,19-difluoro-11-hydroxy-9,13-dimethyl-6-propyl-5,7-dioxapentacyclo[10.8.0.0^2,90.0^4,80.0^13,18]icosa-14,17-dien-16-one] | > 75 | < 10 | 10 to 100 | – | –
CCCC1O[C@@H]2C[C@H]3[C@@H]4CCC5=CC(=O)C=C[C@]5(C)[C@H]4[C@@H](O)C[C@]3(C)[C@]2(C(=O)COc2ccc(N)cc2)O1 (stereo partly drawn) [11-5 R/S, (1S,2S,4R,8S,9S,11S,12S,13R)-8-[2-(4-Aminophenoxy)acetyl]-11-hydroxy-9,13-dimethyl-6-propyl-5,7-dioxapentacyclo[10.8.00^2,90.0^4,80.0^13,18]icosa-14,17-dien-16-one] | > 75 | < 10 | 10 to 100 | – | –
CC(C)C(=O)OCC(=O)[C@@]12OC(Cc3ccc(N)cc3)O[C@@H]1C[C@H]1[C@@H]3CCC4=CC(=O)C=C[C@]4(C)[C@H]3[C@@H](O)C[C@@]12C (stereo partly drawn) [8-2 R/S, 2[(1S,2S,4R,8S,9S,11S,12S,13R)-6[(4-Aminophenyl)methyl]-11-hydroxy-9,13-dimethyl-16-oxo-5,7-dioxapentacyclo[10.8.0.0^2,90.0^4,80.0^13,18]icosa-14,17-dien-8-yl]-2-oxoethyl 2-methylpropanoate] | < 20 | > 100 | < 10 | – | –
CCCC1O[C@@H]2C[C@H]3[C@@H]4CCC5=CC(=O)C=C[C@]5(C)[C@H]4[C@@H](O)C[C@]3(C)[C@]2(C(=O)CNC)O1 (stereo partly drawn) [11-2 R/S, (1S,2S,4R,8S,9S,11S,12S,13R)-11-hydroxy-9,13-dimethyl-8-[2-(methylamino)acetyl]-6-propyl-5,7-dioxapentacyclo[10.8.0.0^2,90.0^4,80.0^13,18]icosa-14,17-dien-16-one] | > 75 | > 100 | 10 to 100 | – | –
CCC[C@@H]1O[C@@H]2C[C@H]3[C@@H]4CCC5=CC(=O)C=C[C@]5(C)[C@H]4[C@@H](O)C[C@]3(C)[C@]2(C(=O)COc2ccc(NC)cc2)O1 [11-8 R, (1S,2S,4R,6R,8S,9S,11S,12S,13R)-11-Hydroxyl-9,13-dimethyl-8-{2-[4-(methylamino)phenoxy]acetyl}-6-propyl-5,7-dioxapentacyclo-[10.8.0.0^2,90.0^4,80.0^13,18]icosa-, 14,17-dien-16-one] | > 75 | < 10 | 10 to 100 | – | –
CCCC1O[C@@H]2C[C@H]3[C@@H]4C[C@H](F)C5=CC(=O)C=C[C@]5(C)[C@@]4(F)[C@@H](O)C[C@]3(C)[C@]2(C(=O)COc2ccc(N)c(F)c2)O1 (stereo partly drawn) [11-14 R/S, (1S,2S,4R,8S,9S,11S,12R,13S,19S)-8-[2-(4-Amino-3-fluorophenoxy)acetyl]-12,19-difluoro-11-hydroxy-9,13-dimethyl-6-propyl-5,7-dioxapentacyclo[10.8.0.0^2,9.0^4,80.0^13,18]icosa-14,17-dien-16-one] | > 75 | < 10 | < 10 | – | –
CCC[C@@H]1O[C@@H]2C[C@H]3[C@@H]4CCC5=CC(=O)C=C[C@]5(C)[C@H]4[C@@H](O)C[C@]3(C)[C@]2(C(=O)COc2ccc(NC(C)=O)cc2)O1 [11-11 R/S, N-(4-{2-[(1S,2S,4R,6R,8S,9S,11S,12S,13R)-11-Hydroxy-9,13-dimethyl-16-oxo-6-propyl-5,7-dioxapentacyclo[10.8.0.0^2,90.0^4,80.0^13,18]icosa-14,17-dien-8-yl]-2-oxoethoxy}phenyl)acetamide] | < 20 | > 100 | < 10 | – | –
CCCC1O[C@@H]2C[C@H]3[C@@H]4C[C@H](F)C5=CC(=O)C=C[C@]5(C)[C@@]4(F)[C@@H](O)C[C@]3(C)[C@]2(C(=O)CN)O1 (stereo partly drawn) [11-19 R/S, (1S,2S,4R,6R,8S,9S,11S,12R,13S,19S)-8-(2-Aminoacetyl)-12,19-difluoro-11-hydroxy-9,13-dimethyl-6-propyl-5,7-dioxapentacyclo[10.8.0.0^2,90.0^4,80.0^13,18]icosa-14,17-dien-16-one; trifluoroacetic acid salt] | > 75 | < 10 | < 10 | – | –
CC(C)C(=O)OCC(=O)[C@@]12OC(CCN)O[C@@H]1C[C@H]1[C@@H]3CCC4=CC(=O)C=C[C@]4(C)[C@H]3[C@@H](O)C[C@@]12C (stereo partly drawn) [8-3 R/S, 2[(1S,2S,4R,8S,9S,11S,12S,13R)-6-(2-Aminoethyl)-11-hydroxy-9,13-dimethyl-16-oxo-5,7-dioxapentacyclo[10.8.0.0^2,90.0^4,8. 0^13,18]icosa-14,17-dien-8-yl]-2-oxoethyl 2-methylpropanoate] | < 20 | > 100 | < 10 | – | –
